From ChEMBL document CHEMBL3112445, “Design and synthesis of prostate cancer antigen-1 (PCA-1/ALKBH3) inhibitors as anti-prostate cancer drugs” (Bioorg Med Chem Lett, 2014)
The source made the active and inactive calls. The rule behind the calls is not given here.

What was measured:
DU-145 [1] = assay: Antiproliferative activity against human DU145 cells at 1 uM after 7 days by 3-D agar-based WST-assay; type: functional; settings: DU-145, 168 h
DU-145 [2] = assay: Antiproliferative activity against human DU145 cells at 10 uM after 7 days by 3-D agar-based WST-assay; type: functional; settings: DU-145, 168 h
DU-145 [3] = assay: Antiproliferative activity against human DU145 cells at 10 uM after 48 hrs by 2-D dish-based WST-assay; type: functional; settings: DU-145, 48 h
DU-145 [4] = assay: Anticancer activity against human DU145 cells xenografted in mouse assessed as tumor growth inhibition at 32 mg/kg, sc administered daily for 6 days; type: functional, organism-based; set-up: dose 32 mg/kg
DU-145 [5] = assay: Antiproliferative activity against human DU145 cells at 1 uM after 48 hrs by 2-D dish-based WST-assay; type: functional; settings: DU-145, 48 h
[6] = biological target: T1, Alpha-ketoglutarate-dependent dioxygenase alkB homolog 3 (Homo sapiens, UniProt Q96Q83); assay: Inhibition of demethylase activity of PCA-1 (unknown origin) using 3-methyl cytosine oligo DNA as substrate after 1 hr by RT-PCR analysis
T1 sequence (Q96Q83 whole entry): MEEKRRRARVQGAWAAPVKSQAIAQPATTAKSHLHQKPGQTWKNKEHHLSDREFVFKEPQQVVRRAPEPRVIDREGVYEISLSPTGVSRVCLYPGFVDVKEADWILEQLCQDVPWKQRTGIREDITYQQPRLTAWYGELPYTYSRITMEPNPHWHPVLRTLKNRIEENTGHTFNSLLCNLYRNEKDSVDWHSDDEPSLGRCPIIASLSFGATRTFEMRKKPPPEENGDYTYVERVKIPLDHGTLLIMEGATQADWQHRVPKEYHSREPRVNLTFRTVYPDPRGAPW

[7] = Initial plasma concentration in Sprague-Dawley rat serum at 0.5 mg/kg, iv; type: ADME, organism-based; set-up: dose 0.5 mg/kg, route intravenous
[8] = AUC (0 to 24 hrs) in Sprague-Dawley rat serum at 0.5 mg/kg, iv; type: ADME, organism-based; set-up: time < 24 hr, dose 0.5 mg/kg, route intravenous
[9] = Oral bioavailability in Sprague-Dawley rat at 32 mg/kg; type: ADME, organism-based; settings: in vivo
[10] = AUC (0 to 24 hrs) in Sprague-Dawley rat serum at 32 mg/kg, po; type: ADME, organism-based; set-up: time < 24 hr, dose 32 mg/kg, route oral
Mus musculus [11] = assay: Toxicity in human DU145 cells xenografted mouse model assessed as body weight at 32 mg/kg, sc administered daily for 6 days; type: organism-based, DU-145; set-up: dose 32 mg/kg, route subcutaneous; settings: in vivo, 144 h
[12] = Cmax in Sprague-Dawley rat serum at 32 mg/kg, po; type: ADME, organism-based; set-up: dose 32 mg/kg, route oral
[13] = biological target: T2, Alpha-ketoglutarate-dependent dioxygenase alkB homolog 3 (Homo sapiens) (UniProt Q96Q83); assay: Inhibition of demethylase activity of PCA-1 (unknown origin) using 3-methyl cytosine oligo DNA as […] after 1 hr by RT-PCR analysis
T2 sequence (whole entry): T1 sequence (Q96Q83 whole entry)

[14] = biological target: T2, Alpha-ketoglutarate-dependent dioxygenase alkB homolog 3 (Homo sapiens); settings: 10 uM
Description: Inhibition of PCA-1 (unknown origin) at 10 uM

Mus musculus [15] = assay: Toxicity in human DU145 cells xenografted mouse model assessed as abnormal behavior at 32 mg/kg, sc administered daily for 6 days; type: organism-based, DU-145; set-up: dose 32 mg/kg, route subcutaneous; settings: in vivo, 144 h
Mus musculus [16] = assay: Toxicity in human DU145 cells xenografted mouse model assessed as abnormality in organs at 32 mg/kg, sc administered daily for 6 days; type: organism-based, DU-145; set-up: dose 32 mg/kg, route subcutaneous; settings: in vivo, 144 h
[17] = Drug level in Sprague-Dawley rat serum at 32 mg/kg, po after 1 hr; type: ADME, organism-based; set-up: dose 32 mg/kg, route oral

Row | SMILES | IC50 [6] | also measured
1 | Cc1ccc2[nH]c(-n3[nH]c(C)c(Cc4ccccc4)c3=O)nc2c1 | – | inhibition at 1 µM (DU-145 [1]): 34%; inhibition at 10 µM (DU-145 [2]): 81%; inhibition at 10 µM (DU-145 [3]): 54%; TGI (DU-145 [4]): Active; inhibition at 1 µM (DU-145 [5]): 35%
2 | Cc1c(-c2ccccc2)[nH]n(-c2nc3ccccc3[nH]2)c1=O | > 10000 nM | –
3 | Cc1[nH]n(-c2nc3ccccc3[nH]2)c(=O)c1Cc1ccc(-c2ccccc2)cc1 | 720 nM | –
4 | Cc1ccc2nc(-n3[nH]c(C)c(Cc4ccc(C(F)(F)F)cc4)c3=O)[nH]c2c1 | 570 nM | –
5 | Cc1ccc2nc(-n3[nH]c(C)c(Cc4ccccc4)c3=O)[nH]c2c1 | 670 nM | C0 [7]: 430 ng/mL; AUC(0-t) at 24 h [8]: 150 ng·h/mL; bioavailability [9]: 7.2%; AUC(0-t) at 24 h [10]: 690 ng·h/mL; Activity (Mus musculus [11]): Non-toxic; Cmax [12]: 350 ng/mL
6 | Cc1[nH]n(-c2ncccn2)c(=O)c1C | > 10000 nM | inhibition [13]: -4%
7 | O=c1c(Cc2ccccc2)c(-c2ccccc2)[nH]n1-c1nc2ccccc2[nH]1 | > 10000 nM | inhibition [13]: 2%
8 | Cc1ccc(-c2ccc3[nH]c(-n4[nH]c(C)c(Cc5ccccc5)c4=O)nc3c2)cc1 | 2100 nM | –
9 | Cc1[nH]n(-c2nc3ccccc3[nH]2)c(=O)c1CC(=O)O | 15000 nM | –
10 | Cc1[nH]n(-c2nc3ccccc3[nH]2)c(=O)c1Cc1ccc(C(F)(F)F)cc1 | 550 nM | –
11 | COC(=O)Cc1c(C)[nH]n(-c2nc3ccccc3[nH]2)c1=O | 4300 nM | –
12 | Cc1[nH]n(-c2ccccn2)c(=O)c1C | > 10000 nM | inhibition [13]: -4%
13 | Cc1[nH]n(-c2nc3c(C)cccc3[nH]2)c(=O)c1C | > 10000 nM | –
14 | Cc1[nH]n(-c2nc3cc(C(F)(F)F)ccc3[nH]2)c(=O)c1Cc1ccccc1 | 610 nM | inhibition at 1 µM (DU-145 [1]): 90%; inhibition at 10 µM (DU-145 [2]): 92%; inhibition at 10 µM (DU-145 [3]): 84%; inhibition at 1 µM (DU-145 [5]): 78%
15 | Cc1[nH]n(-c2nc3ccccc3n2C)c(=O)c1C | > 10000 nM | inhibition [13]: 21%
16 | Cc1[nH]n(-c2nc3cc(-c4ccccc4)ccc3[nH]2)c(=O)c1Cc1ccccc1 | 810 nM | –
17 | Cc1ccc2[nH]c(-n3[nH]c(C)c(Cc4ccc(F)cc4)c3=O)nc2c1 | 780 nM | –
18 | Cc1[nH]n(-c2nc3ccccc3[nH]2)c(=O)c1Cc1ccc(Cl)cc1 | > 10000 nM | inhibition [13]: 46%
19 | Cc1[nH]n(-c2nc3cc(Br)ccc3[nH]2)c(=O)c1Cc1ccccc1 | 490 nM | –
20 | Cc1[nH]n(-c2nc3ccccc3[nH]2)c(=O)c1Cc1ccc(Cl)c(Cl)c1 | 3100 nM | –
21 | Cc1[nH]n(-c2ccccn2)c(=O)c1C(=O)Nc1ccccc1 | 1700 nM | inhibition at 10 µM (DU-145 [3]): 25%
22 | Cc1[nH]n(-c2nc3cc(Cl)ccc3[nH]2)c(=O)c1Cc1ccccc1 | 4500 nM | inhibition at 1 µM (DU-145 [1]): 84%; inhibition at 10 µM (DU-145 [2]): 87%; inhibition at 1 µM (DU-145 [5]): 86%
23 | Cc1ccc2[nH]c(-n3[nH]c(C)c(Cc4ccc(C(C)(C)C)cc4)c3=O)nc2c1 | 3700 nM | –
24 | Cc1[nH]n(-c2nc3ccccc3[nH]2)c(=O)c1Cc1ccc(C(C)(C)C)cc1 | 4100 nM | –
25 | Cc1[nH]n(-c2nc3ccccc3[nH]2)c(=O)c1Cc1ccccc1Cl | > 10000 nM | –

Row | SMILES | IC50 [6] | also measured
26 | Cc1[nH]n(-c2nc3ccccc3[nH]2)c(=O)c1Cc1ccc2ccccc2c1 | 750 nM | –
27 | Cc1ccc2[nH]c(-n3[nH]c(-c4ccccc4)c(C)c3=O)nc2c1 | 3300 nM | –
28 | Cc1[nH]n(-c2nc3ccccc3[nH]2)c(=O)c1C | 4000 nM | inhibition at 10 µM (DU-145 [3]): 0.8%; inhibition [14]: 76%
29 | COc1ccc(Cc2c(C)[nH]n(-c3nc4ccccc4[nH]3)c2=O)cc1 | 630 nM | Activity (Mus musculus [15]): Non-toxic; Activity (Mus musculus [16]): Non-toxic
30 | Cc1[nH]n(-c2nc3ccccc3s2)c(=O)c1C | > 10000 nM | inhibition [13]: -3%
31 | Cc1ccc2[nH]c(-n3[nH]c(C)c(C)c3=O)nc2c1 | 2600 nM | inhibition at 1 µM (DU-145 [1]): 3.8%; inhibition at 10 µM (DU-145 [2]): 69%; concentration at 1 h [17]: 1080 ng/mL; inhibition at 10 µM (DU-145 [3]): 19%; inhibition at 1 µM (DU-145 [5]): -11%
32 | Cc1[nH]n(-c2nc3ccccc3o2)c(=O)c1C | > 10000 nM | inhibition [13]: 0%
33 | Cc1ccc2[nH]c(-n3nc(-c4ccccc4)c(-c4ccccc4)c3O)nc2c1 | 5800 nM | –
34 | Cc1[nH]n(-c2nc3ccccc3[nH]2)c(=O)c1Cc1ccc(Cl)cc1Cl | > 10000 nM | inhibition [13]: 11%
35 | Cc1[nH]n(-c2nc3ccccc3[nH]2)c(=O)c1Cc1ccc(F)cc1 | 600 nM | –
36 | Oc1c(-c2ccccc2)c(-c2ccccc2)nn1-c1nc2cc(Cl)ccc2[nH]1 | 2000 nM | –
37 | Cc1ccc2[nH]c(-n3[nH]c(C)c(Cc4ccc(Cl)c(Cl)c4)c3=O)nc2c1 | 720 nM | –
38 | Cc1nn(-c2nc3ccccc3[nH]2)c(O)c1Cc1ccccc1 | 480 nM | inhibition at 1 µM (DU-145 [1]): 42%; inhibition at 10 µM (DU-145 [2]): 90%; inhibition at 10 µM (DU-145 [3]): 47%; inhibition at 1 µM (DU-145 [5]): 42%
39 | Cc1[nH]n(-c2nc3ccc(C(C)(C)C)cc3[nH]2)c(=O)c1Cc1ccccc1 | 640 nM | –
40 | O=c1cc(-c2ccccc2)[nH]n1-c1nc2ccccc2[nH]1 | 7200 nM | –
41 | Cc1ccc2[nH]c(-n3[nH]c(C)c(Cc4ccccc4Cl)c3=O)nc2c1 | 910 nM | –
42 | Cc1[nH]n(-c2nc3c(C)cccc3[nH]2)c(=O)c1Cc1ccccc1 | 5900 nM | –
43 | Cc1ccc2nc(-n3[nH]c(C)c(Cc4ccccc4)c3=O)[nH]c2c1C | > 10000 nM | –
44 | Cc1ccc2[nH]c(-n3[nH]c(C)c(Cc4ccc(Cl)cc4)c3=O)nc2c1 | 750 nM | inhibition at 1 µM (DU-145 [1]): 2.8%; inhibition at 10 µM (DU-145 [2]): 90%; inhibition at 10 µM (DU-145 [3]): 46%; inhibition at 1 µM (DU-145 [5]): -1%
45 | COc1ccc(Cc2c(C)[nH]n(-c3nc4ccc(C)cc4[nH]3)c2=O)cc1 | 680 nM | –
46 | Cc1[nH]n(-c2nc3cc(-c4ccc(Cl)cc4)ccc3[nH]2)c(=O)c1Cc1ccccc1 | 1500 nM | inhibition at 1 µM (DU-145 [1]): 91%; inhibition at 10 µM (DU-145 [2]): 100%; inhibition at 10 µM (DU-145 [3]): 63%; inhibition at 1 µM (DU-145 [5]): 70%
47 | Cc1ccc2nc(-n3[nH]c(C)c(Cc4ccc(-c5ccccc5)cc4)c3=O)[nH]c2c1 | 5300 nM | –
48 | Cc1[nH]n(-c2nc3ccccc3[nH]2)c(=O)c1Cc1cccc(Cl)c1 | 540 nM | –
49 | Cc1[nH]n(-c2ccccc2)c(=O)c1C | > 10000 nM | inhibition [13]: 20%
50 | Cc1cc(O)n(-c2nc3ccccc3[nH]2)n1 | 3600 nM | –
